Source: paper PMC9918186, “Interaction of Positively Charged Oligopeptides with Blood Plasma Proteins” (International Journal of Molecular Sciences, 2023)

Key:
[1] = previous studies; cited from earlier work
Text: (§1) The subject of this study was oligopeptides with the following sequences: Lys-Dab-Dab-Gly-Orn-Pro-His-Lys-Arg-Lys-Dbt, Lys-Dab-Ala-Gly-Orn-Pro-His-Lys-Arg, and Lys-Dab-Dab-Gly-Orn-Pro-Phe(2-F)-Lys-Arg, which are referred to as L1, L2, and L3, respectively, in the remainder of this work. The investigated oligopeptides consist of an amino group (NH2) in the side chain of unique unnatural amino acids such as Dab (2,4-diaminobutyric acid) and Orn (2,5-diaminopentanoic acid) and standard amino acids such as Lys, and N-terminus and in Dbt in the C-terminal region. Additionally, the presence of the g ...

[2] = tested on: oxygen-free radical species (ROS); settings: previous studies; cited from earlier work
Text: as §1

[3] = molecular target: T1, BSA (Bos taurus, UniProt P02769); assay: CD spectroscopy, secondary structure of BSA with peptide; parameters: species or system bovine
T1 construct: purchased Sigma Aldrich
T1 sequence (P02769 25-607): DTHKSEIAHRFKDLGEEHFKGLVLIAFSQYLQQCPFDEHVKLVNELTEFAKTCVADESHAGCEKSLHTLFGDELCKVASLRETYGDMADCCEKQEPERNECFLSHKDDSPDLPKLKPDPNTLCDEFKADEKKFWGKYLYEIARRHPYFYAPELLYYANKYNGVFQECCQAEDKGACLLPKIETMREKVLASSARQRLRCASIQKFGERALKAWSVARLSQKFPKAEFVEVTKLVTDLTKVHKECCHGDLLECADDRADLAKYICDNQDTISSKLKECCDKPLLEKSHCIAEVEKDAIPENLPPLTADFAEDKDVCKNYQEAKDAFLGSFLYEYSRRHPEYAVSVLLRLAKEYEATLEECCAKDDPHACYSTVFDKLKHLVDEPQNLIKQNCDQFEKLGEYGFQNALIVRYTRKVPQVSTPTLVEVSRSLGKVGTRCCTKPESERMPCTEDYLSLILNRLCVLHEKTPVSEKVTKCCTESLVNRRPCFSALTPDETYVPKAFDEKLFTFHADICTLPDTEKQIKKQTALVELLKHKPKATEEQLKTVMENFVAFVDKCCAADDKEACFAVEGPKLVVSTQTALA
Method: Circular dichroism spectroscopy, similar to fluorescence and FTIR spectroscopies, is a useful method to determine the changes in the secondary structure of proteins in case of the presence of compounds that can interact with protein molecules. Therefore, in this study, the CD spectra for BSA protein and GGF fraction, in the absence and presence of analyzed peptides L1, L2, and L3, were measured (Figure 3). We wanted to check the changes in the course of the spectrum after adding every portion of the analyzed peptides, from 1:0 to 1:1.5 protein to L1–L3 molar ratios.
Circular dichroism (CD) spectroscopy was performed using the Jasco J-1500 magnetic circular dichroism spectrometer (JASCO International CO., Tokyo, Japan). All measurements for the protein solutions in the absence and presence of the analyzed peptides L1, L2, and L3 were made at room temperature under simulated physiological conditions in pH 7.4, in phosphate buffer as a solvent. The phosphate buffer not only controls the stable pH but also imitates the biological environments. However, its use leads to some limitations for CD measurements due to containing NaCl and KCl. The spectra were baseline corrected (phosphate buffer was used as a baseline) and were measured in the range of 205–250 nm at a scan rate speed of 50 nm/min, with a response time of 1 s, and a 10 mm or 5 mm path length for BSA and GGF, respectively. The concentrations of proteins and analyzed peptides were 1 × 10^−6 mol/dm^3 and 1 × 10^−3 mol/dm^3, respectively. Experiments were performed with protein to ligand molar ratios: 1:0, 1:0.25, 1:0.5, 1:0.75, 1:1, and 1:1.5. In total, 3 cm^3 of a solution of each protein was titrated by successive additions of analyzed peptides. The results were analyzed by CD Multivariate Calibration Creation and CD Multivariate SSE programs (JASCO International CO., Tokyo, Japan), with the conversion of protein concentrations for mean residue molar concentrations.

[4] = BSA:peptide 1:0.25, pH 7.4 phosphate buffer
[5] = BSA:peptide 1:0.5, pH 7.4 phosphate buffer
[6] = BSA:peptide 1:0.75, pH 7.4 phosphate buffer
[7] = BSA:peptide 1:1, pH 7.4 phosphate buffer
[8] = BSA:peptide 1:1.5, pH 7.4 phosphate buffer

% Other of BSA [3, 4]: 24.6%
% β-Sheet of BSA [3, 4]: 6.0%
% β-Turn of BSA [3, 4]: 10.0%
% α-Helix of BSA ([3]; BSA:peptide 1:0.25, pH 7.4 phosphate buffer, room temperature, BSA 1 µM): 59.4%
% Other of BSA [3, 5]: 24.8%
% α-Helix of BSA [3, 5]: 59.2%
% β-Sheet of BSA [3, 5]: 5.9%
% β-Turn of BSA [3, 5]: 10.1%
% Other of BSA [3, 6]: 25.0%
% α-Helix of BSA [3, 6]: 58.6%
% β-Sheet of BSA [3, 6]: 6.3%
% β-Turn of BSA [3, 6]: 10.1%
% Other of BSA [3, 7]: 25.0%
% α-Helix of BSA [3, 7]: 58.5%
% β-Sheet of BSA [3, 7]: 6.4%
% β-Turn of BSA [3, 7]: 10.1%
% Other of BSA [3, 8]: 25.1%
% α-Helix of BSA [3, 8]: 58.2%
% β-Sheet of BSA [3, 8]: 6.6%
% β-Turn of BSA [3, 8]: 10.1%
reduction in the percentage of α-helix of BSA ([3]; from 1:0 to 1:1.5 BSA:peptide): 2.5%
Substance: Lys-Dab-Dab-Gly-Orn-Pro-His-Lys-Arg-Lys-Dbt [L1]
anti-inflammatory activity [1]: possess anti-inflammatory activity
effect on level of oxygen-free radical species (ROS) [2]: reduce the level of oxygen-free radical species (ROS)
